The values below come from ChEMBL document CHEMBL5678818, “Discovery of potent SOS1 inhibitors that block RAS activation via disruption of the RAS-SOS1 interaction” (Proc Natl Acad Sci U S A, 2019).

The target in assay [1] is T1, Serine/threonine-protein kinase PknB (Mycobacterium tuberculosis) (UniProt P9WI81).
T1 sequence (whole entry): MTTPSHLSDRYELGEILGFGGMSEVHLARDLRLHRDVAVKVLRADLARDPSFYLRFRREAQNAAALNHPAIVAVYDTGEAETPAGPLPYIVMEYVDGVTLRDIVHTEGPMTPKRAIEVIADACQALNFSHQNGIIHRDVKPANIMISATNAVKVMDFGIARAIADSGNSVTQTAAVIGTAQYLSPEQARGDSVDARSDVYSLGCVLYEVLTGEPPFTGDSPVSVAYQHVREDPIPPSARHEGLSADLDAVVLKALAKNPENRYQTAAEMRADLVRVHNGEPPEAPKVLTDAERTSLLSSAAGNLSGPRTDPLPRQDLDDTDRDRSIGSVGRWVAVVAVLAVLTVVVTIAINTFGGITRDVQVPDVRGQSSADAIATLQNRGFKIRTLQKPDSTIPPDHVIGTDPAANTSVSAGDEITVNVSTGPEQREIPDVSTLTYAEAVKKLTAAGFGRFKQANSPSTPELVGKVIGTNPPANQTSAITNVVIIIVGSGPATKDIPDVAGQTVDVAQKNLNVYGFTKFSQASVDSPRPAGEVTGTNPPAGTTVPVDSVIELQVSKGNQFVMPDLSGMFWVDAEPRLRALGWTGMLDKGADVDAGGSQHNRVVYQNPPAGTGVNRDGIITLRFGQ
The assay is described as follows: Inhibition of Mycobacterium tuberculosis PKNB assessed as residual activity at 1000 nM by KINOMEscan analysis relative to control.

Assay [2] concerns the target Serine/threonine-protein kinase 32C (Homo sapiens) (UniProt Q86UX6). The assay is described as follows: Inhibition of YANK3 (unknown origin) assessed as residual activity at 1000 nM by KINOMEscan analysis relative to control.
Assay [3] deals with T2, Homeodomain-interacting protein kinase 4 (Homo sapiens) (UniProt Q8NE63).
T2 sequence (whole entry): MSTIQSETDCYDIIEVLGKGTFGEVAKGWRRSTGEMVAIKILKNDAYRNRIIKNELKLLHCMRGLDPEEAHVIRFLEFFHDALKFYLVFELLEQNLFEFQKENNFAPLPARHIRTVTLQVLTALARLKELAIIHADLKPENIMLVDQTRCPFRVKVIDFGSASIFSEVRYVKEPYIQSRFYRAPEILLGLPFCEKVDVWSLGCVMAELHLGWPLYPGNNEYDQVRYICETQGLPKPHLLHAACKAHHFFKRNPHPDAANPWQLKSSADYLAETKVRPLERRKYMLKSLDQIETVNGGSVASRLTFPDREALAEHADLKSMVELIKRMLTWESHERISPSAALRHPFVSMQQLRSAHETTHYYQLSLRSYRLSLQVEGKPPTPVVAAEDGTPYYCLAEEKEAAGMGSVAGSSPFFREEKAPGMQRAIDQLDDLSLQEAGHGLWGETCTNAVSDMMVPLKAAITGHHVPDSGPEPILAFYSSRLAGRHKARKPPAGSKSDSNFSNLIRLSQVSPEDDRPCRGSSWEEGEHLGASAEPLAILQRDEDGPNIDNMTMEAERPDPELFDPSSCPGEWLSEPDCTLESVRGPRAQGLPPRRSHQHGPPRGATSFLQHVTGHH
Nature of the assay: Inhibition of HIPK4 (unknown origin) assessed as residual activity at 1000 nM by KINOMEscan analysis relative to control.

The target of assay [4] is Mitogen-activated protein kinase 1 (Homo sapiens) (UniProt P28482). The assay is described as follows: Inhibition of ERK2 (unknown origin) assessed as residual activity at 1000 nM by KINOMEscan analysis relative to control.
Assay [5] has as its target T3, Serine/threonine-protein kinase TAO2 (Homo sapiens) (UniProt Q9UL54).
T3 sequence (whole entry): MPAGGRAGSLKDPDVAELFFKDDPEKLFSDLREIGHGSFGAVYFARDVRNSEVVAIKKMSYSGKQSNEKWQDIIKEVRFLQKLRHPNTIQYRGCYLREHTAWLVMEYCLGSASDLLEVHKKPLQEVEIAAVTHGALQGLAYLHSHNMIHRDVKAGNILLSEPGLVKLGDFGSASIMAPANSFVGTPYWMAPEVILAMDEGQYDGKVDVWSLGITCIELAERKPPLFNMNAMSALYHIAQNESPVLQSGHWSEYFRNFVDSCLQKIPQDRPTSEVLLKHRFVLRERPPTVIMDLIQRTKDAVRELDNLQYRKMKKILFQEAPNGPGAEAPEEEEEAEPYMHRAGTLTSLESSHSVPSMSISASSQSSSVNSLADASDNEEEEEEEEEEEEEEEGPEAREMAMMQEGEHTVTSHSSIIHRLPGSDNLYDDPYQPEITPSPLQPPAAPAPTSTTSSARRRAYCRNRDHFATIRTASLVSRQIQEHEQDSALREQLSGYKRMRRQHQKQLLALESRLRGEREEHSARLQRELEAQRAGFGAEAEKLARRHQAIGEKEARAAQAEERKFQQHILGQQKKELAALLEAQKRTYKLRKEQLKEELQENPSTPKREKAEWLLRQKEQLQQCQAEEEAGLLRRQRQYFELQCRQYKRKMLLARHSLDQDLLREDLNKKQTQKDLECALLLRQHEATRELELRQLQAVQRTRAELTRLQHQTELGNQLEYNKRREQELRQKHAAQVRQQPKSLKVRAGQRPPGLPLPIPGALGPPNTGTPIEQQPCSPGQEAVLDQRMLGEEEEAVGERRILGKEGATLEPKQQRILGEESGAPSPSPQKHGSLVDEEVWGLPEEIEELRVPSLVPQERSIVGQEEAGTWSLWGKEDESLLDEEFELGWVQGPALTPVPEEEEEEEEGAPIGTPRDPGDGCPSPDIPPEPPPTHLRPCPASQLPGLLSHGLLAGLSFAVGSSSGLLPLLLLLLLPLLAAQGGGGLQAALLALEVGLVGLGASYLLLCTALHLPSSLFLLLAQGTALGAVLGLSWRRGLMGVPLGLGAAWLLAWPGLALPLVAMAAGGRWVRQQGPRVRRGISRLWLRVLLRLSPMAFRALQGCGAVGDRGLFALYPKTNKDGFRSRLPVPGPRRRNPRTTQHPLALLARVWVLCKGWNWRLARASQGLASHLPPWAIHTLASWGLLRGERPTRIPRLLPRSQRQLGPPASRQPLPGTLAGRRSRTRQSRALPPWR
The assay is described as follows: Inhibition of TAOK2 (unknown origin) assessed as residual activity at 1000 nM by KINOMEscan analysis relative to control.

Assay [6] has as its target High affinity nerve growth factor receptor (Homo sapiens) (UniProt P04629). The assay is described as follows: Inhibition of TRKA (unknown origin) assessed as residual activity at 1000 nM by KINOMEscan analysis relative to control.

Molecules are shown by their SMILES.

Serine/threonine-protein kinase 32C (Homo sapiens), sequence (Q86UX6 whole entry): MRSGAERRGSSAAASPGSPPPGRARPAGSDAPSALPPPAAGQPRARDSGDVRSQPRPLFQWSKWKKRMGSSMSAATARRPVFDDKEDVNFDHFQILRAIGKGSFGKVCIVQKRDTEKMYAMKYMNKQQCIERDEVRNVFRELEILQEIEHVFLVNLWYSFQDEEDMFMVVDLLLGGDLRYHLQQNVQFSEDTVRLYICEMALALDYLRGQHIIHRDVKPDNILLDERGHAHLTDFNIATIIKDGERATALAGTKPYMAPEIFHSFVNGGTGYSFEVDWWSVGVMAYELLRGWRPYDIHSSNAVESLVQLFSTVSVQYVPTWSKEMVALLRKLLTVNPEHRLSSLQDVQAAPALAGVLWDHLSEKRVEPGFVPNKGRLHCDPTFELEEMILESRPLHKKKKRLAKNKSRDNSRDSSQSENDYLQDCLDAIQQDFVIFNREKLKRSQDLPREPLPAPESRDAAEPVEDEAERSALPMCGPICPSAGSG
Mitogen-activated protein kinase 1 (Homo sapiens), sequence (P28482 whole entry): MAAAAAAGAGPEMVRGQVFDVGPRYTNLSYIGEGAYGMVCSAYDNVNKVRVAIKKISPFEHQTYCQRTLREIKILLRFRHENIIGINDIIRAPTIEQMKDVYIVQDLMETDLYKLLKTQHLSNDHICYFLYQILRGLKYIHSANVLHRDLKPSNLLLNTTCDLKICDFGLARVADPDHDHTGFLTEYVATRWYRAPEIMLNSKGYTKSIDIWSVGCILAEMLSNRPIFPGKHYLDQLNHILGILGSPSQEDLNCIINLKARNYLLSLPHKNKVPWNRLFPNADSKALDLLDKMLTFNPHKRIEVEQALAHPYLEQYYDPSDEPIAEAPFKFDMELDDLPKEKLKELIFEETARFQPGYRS
High affinity nerve growth factor receptor (Homo sapiens), sequence (P04629 33-796 limits assumed): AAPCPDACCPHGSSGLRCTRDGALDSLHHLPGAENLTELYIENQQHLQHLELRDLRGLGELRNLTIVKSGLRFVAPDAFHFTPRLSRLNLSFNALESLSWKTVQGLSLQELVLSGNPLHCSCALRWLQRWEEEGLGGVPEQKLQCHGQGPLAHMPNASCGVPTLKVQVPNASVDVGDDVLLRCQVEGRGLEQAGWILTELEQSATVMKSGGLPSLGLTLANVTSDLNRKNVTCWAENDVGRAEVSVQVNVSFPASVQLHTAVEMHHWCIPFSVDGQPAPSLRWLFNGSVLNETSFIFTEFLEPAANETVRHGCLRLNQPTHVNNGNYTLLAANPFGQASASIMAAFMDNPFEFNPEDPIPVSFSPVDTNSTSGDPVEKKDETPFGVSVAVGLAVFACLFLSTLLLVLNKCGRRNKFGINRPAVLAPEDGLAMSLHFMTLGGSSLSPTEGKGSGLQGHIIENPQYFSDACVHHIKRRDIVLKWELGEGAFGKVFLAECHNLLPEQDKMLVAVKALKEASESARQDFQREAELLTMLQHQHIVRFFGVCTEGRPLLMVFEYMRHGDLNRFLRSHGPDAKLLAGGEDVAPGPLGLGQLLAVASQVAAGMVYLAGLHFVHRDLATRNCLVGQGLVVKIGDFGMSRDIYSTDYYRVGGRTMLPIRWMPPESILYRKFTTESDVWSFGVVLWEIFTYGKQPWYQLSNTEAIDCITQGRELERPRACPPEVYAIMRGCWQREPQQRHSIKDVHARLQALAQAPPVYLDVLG

Consider `COc1cc2nc(C)nc(N[C@H](C)c3cccc(-c4cn[nH]c4)c3)c2cc1OC`, for which the Activity in assay [1] came to 89%; in assay [2], 98%; in assay [3], 80%; in assay [4], 90%; in assay [5] it was 78%; in assay [6], 99%.
Turning to `COc1cc2ncnc(N[C@H](C)c3cccc4ccccc34)c2cc1OC`, the Activity turned out to be 94% in assay [1]; 100% in assay [2]; 100% in assay [3]; 96% in assay [4]; 90% in assay [5]; 97% in assay [6].
